Test results taken from ChEMBL document CHEMBL3217526, “Bioguided discovery and pharmacophore modeling of the mycotoxic indole diterpene alkaloids penitrems as breast cancer proliferation, migration, and invasion inhibitors” (Medchemcomm, 2013).

How the values were obtained:
Caenorhabditis elegans [1] = assay: Toxicity in L1 stage Caenorhabditis elegans N2 assessed as viability and reproduction at 10 uM; type: organism-based; details: in vivo
MCF7 = assay: Antiproliferative activity against human MCF7 cells after 72 hrs by MTT assay; type: functional, cell-based; details: MCF7, 72 h
Caenorhabditis elegans [2] = assay: Toxicity in L1 stage Caenorhabditis elegans N2 assessed as viability and reproduction at 50 uM; type: organism-based; details: in vivo
MDA-MB-231 [3] = assay: Antimigratory activity in human MDA-MB-231 cells after 24 hrs by wound healing assay; type: functional, cell-based; details: MDA-MB-231, 24 h
MDA-MB-231 [4] = assay: Antiproliferative activity against human MDA-MB-231 cells after 72 hrs by MTT assay; type: functional, cell-based; details: MDA-MB-231, 72 h
Caenorhabditis elegans [5] = assay: In vivo inhibition of BK channel in L1 stage Caenorhabditis elegans N2 assessed as increase in reversals at 1 uM; type: organism-based

SMILES	Activity (Caenorhabditis elegans [1])	IC50 (MCF7) [µM]	Activity (Caenorhabditis elegans [2])	IC50 (MDA-MB-231 [3]) [µM]	IC50 (MDA-MB-231 [4]) [µM]	Activity (Caenorhabditis elegans [5])
C=C1Cc2c(Br)cc3[nH]c4c5c3c2[C@H]2[C@@H]1C[C@@H]2C(C)(C)O[C@H]5[C@@H]1CC[C@@]2(O)[C@@]35O[C@@H]3[C@@H](O)[C@@H](C(=C)C)O[C@H]5CC[C@]2(C)[C@]41C	Non-toxic	19.3	Non-toxic	30.3	18.8	
C=C(C)[C@H]1O[C@H]2CC[C@@]3(C)[C@@](O)(CC[C@H]4[C@@H]5OC(C)(C)[C@H]6C[C@@H]7C(=C)Cc8c(Br)cc9[nH]c(c5c9c8[C@@]76O)[C@@]43C)[C@]23O[C@@H]3[C@H]1O	Non-toxic	16.7	Non-toxic	9.6	8.5	Toxic
CC(C)=CCC[C@]1(C)[C@@H](O)CC[C@@]2(C)[C@H]1CC[C@H]1Cc3c([nH]c4ccccc34)[C@@]12C [EMINDOLE SB]	Non-toxic	10.1	Non-toxic	19	21.3	Non-toxic
CC(C)(O)[C@@H]1CC[C@]2(C)[C@H](CC[C@@]3(C)[C@H]2CC[C@H]2Cc4c([nH]c5ccccc45)[C@@]23C)O1 [PASPALINE]	Non-toxic	12.8	Non-toxic	7.6	12.4	
